Results on 45 compounds are retold here after patent publication US11447470B2, “Pyrimidinone-containing compound, preparation method thereof, pharmaceutical composition and application thereof” (YUNNAN UNIVERSITY, priority 2018, dated 2022).

Where two headings read alike, the source gives them in different places. Some results are limits rather than exact numbers.

Format in all cases: cell-based
The nature of series [1]: Cytotoxicity experiment (MTT method) on C8166 cells. Conditions: human. As for the experimental part: (§1) C8166 cells infected with HIV-1 were used for determining the anti-HIV biological activity at the cellular level. The specific method was described below.
(§2) Cytotoxicity experiment: The toxicity of the compounds on C8166 cells was determined by MTT method. In 96-well cell culture plates, the compounds were subjected to 5-fold serial dilution and 100 μL of C8166 cell suspension (4×10^5/mL) was added into each well. Triplicate wells were set for each concentration. […] The cells were incubated at 37° C. in a 5% CO2 incubator for three days, followed by the addition of MTT solution into each well, and then the cells were incubated at 37° C. for 4 hours. 10% SDS-50% DMF was added into each well and the cells were incubated at 37° C. in a 5% CO2 incubator overnight. After mixing evenly, the OD values were measured by BIO-TEK ELx800 ELISA instrument (determination wavelength: 570 nm; reference wavelength: 630 nm).
Background: Tetrazolium assays rely on reduction of a dye to a coloured formazan, in cell work by metabolically active cells.

Series [2] deals with HIV-1IIIB. Put plainly: Syncytium inhibition experiment, C8166 cells infected with HIV-1IIIB. As to conditions: Human immunodeficiency virus 1, 72 h; HIV-1IIIB (MOI=0.04) in C8166 cells, syncytium count, three days. As for the experimental part: as §1
Syncytium inhibition experiment: 100 μL of C8166 cell suspension (4×10^5/mL) was seeded into each well of 96-well cell culture plates containing 5-fold serial dilutions of the compounds, followed by addition of HIV-1IIIB diluted supernatant (MOI=0.04). Triplicate wells were set for each serial concentration. […] The cells were cultured at 37° C. in a 5% CO2 incubator for three days. The number of the syncytia was counted in five non-overlapping fields of view by using an inverted microscope (100×).

Series [3] has as its system C8166 cells. Kind of series: Cytotoxicity experiment (MTT method) on C8166 cells. As for the experimental part: as §1, §2
The mark [4] stands for this setting: C8166 cells, MTT, three days, read-out: CC50.

A word on the CC50: it is the concentration that lowers cell viability or growth by half. Usually EC50 stands for the midpoint of the concentration-response curve. Read a low EC50 as an effect from little substance. Take `CCc1c(CC2CCCCC2)nc(SCc2cc(-c3ccc(C)cc3)[nH]n2)[nH]c1=O` [Compound I-21]: in series [1] (setting [4]), the CC50 at 3 days stood at 82800 nM. Further, the EC50 in series [2] is 74 nM.
In series [1], `CCc1c(Cc2ccccc2)nc(SCc2cc(-c3ccc(F)cc3)[nH]n2)[nH]c1=O` [Compound I-49] yielded a CC50 at 3 days of more than 200000 nM. In series [3] (human, 3 days), this compound yielded a CC50 of more than 200000 nM. The compound further displayed an EC50 in series [2] of 837 nM.
As for `CC(C)c1c(CC2CCCCC2)nc(SCc2n[nH]c(-c3ccc(F)cc3)c2Cl)[nH]c1=O` [Compound I-37], the midpoint of cytotoxicity in series [1], the CC50 at 3 days, lay at 73000 nM. In series [2], this compound came in with an EC50 of 6 nM.
In the same order, the values of `CCc1c(Cc2ccccc2)nc(SCc2n[nH]c(-c3ccccc3)c2Cl)[nH]c1=O` [Compound I-71] are more than 200000 nM and 51 nM.
As to `Cc1c(CC2CCCCC2)nc(SCc2cc(-c3ccc(O)cc3)[nH]n2)[nH]c1=O` [Compound I-47], the CC50 at 3 days in series [1] is 61800 nM. In series [2], the response was half-maximal at 142 nM (EC50).
As for `COc1ccc(-c2cc(CSc3nc(CC4CCCCC4)c(C(C)C)c(=O)[nH]3)n[nH]2)cc1` [Compound I-40], the CC50 at 3 days in series [1] was more than 200000 nM. Also, in series [3] (human, 3 days), the CC50 was more than 200000 nM. In addition, in series [2], the EC50 was 12 nM.
As for `CCc1c(Cc2ccccc2)nc(SCc2n[nH]c(-c3ccc(F)c(F)c3)c2Cl)[nH]c1=O` [Compound I-53], in series [1], the CC50 at 3 days was more than 200000 nM. In series [3] (human, 3 days), this compound registered a CC50 of more than 200000 nM. Also, in series [2], a half-maximal response (EC50) required 141 nM.
Take `CCc1c(Cc2ccc3c(c2)OCO3)nc(SCc2cc(-c3ccc(F)cc3)[nH]n2)[nH]c1=O` [Compound I-50]: the CC50 at 3 days in series [1] stood at 78000 nM. Also, the EC50 in series [2] was found to be 2970 nM.
Take `CC(C)c1c(CC2CCCCC2)nc(SCc2cc(-c3ccc(F)cc3)[nH]n2)[nH]c1=O` [Compound I-39]: in series [1], the midpoint of cytotoxicity, the CC50 at 3 days, lay at 99000 nM. For the same compound, in series [2], the concentration giving a half-maximal response (EC50) was determined as 16 nM.
In the case of `CCc1c(Cc2ccc3c(c2)OCO3)nc(SCc2cc(-c3ccc(F)c(F)c3)[nH]n2)[nH]c1=O` [Compound I-62], the CC50 at 3 days in series [1] was more than 200000 nM. In series [2], the EC50 was determined as 4980 nM.
In the same order, the values of `CCc1c(Cc2cc(F)cc(F)c2)nc(SCc2n[nH]c(-c3ccc(F)c(F)c3)c2Cl)[nH]c1=O` [Compound I-57] are 81100 nM and 80 nM.
In series [1], `O=c1cc(CC2CCCCC2)nc(SCc2n[nH]c(-c3ccc(F)cc3)c2Cl)[nH]1` [Compound I-67] gave a CC50 at 3 days of more than 200000 nM. Further, the EC50 in series [2] came out at 847 nM.
In the same order, the values of `CCc1c(Cc2c(Cl)cccc2Cl)nc(SCc2cc(-c3ccc(F)cc3)[nH]n2)[nH]c1=O` [Compound I-51] are 45500 nM and 602 nM.
Regarding `CCc1c(CC2CCCCC2)nc(SCc2n[nH]c(-c3ccc(Cl)c(Cl)c3)c2Cl)[nH]c1=O` [Compound I-13], in series [1] (C8166 cells in vitro, read-out: CC50 values on C8166 cells), the CC50 at 3 days was more than 200000 nM. Moreover, in series [3] (setting [4]), the CC50 is more than 200000 nM. Moreover, the response in series [2] was half-maximal at 349 nM (EC50).
Take `CCc1c(Cc2c(Cl)cccc2Cl)nc(SCc2n[nH]c(-c3ccc(F)cc3)c2Cl)[nH]c1=O` [Compound I-64]: the CC50 at 3 days in series [1] is more than 200000 nM. The EC50 in series [2] turned out to be 643 nM.
In the case of `CC(C)c1c(CC2CCCCC2)nc(SCc2cc(-c3ccccc3)[nH]n2)[nH]c1=O` [Compound I-35], the CC50 at 3 days in series [1] stood at 104000 nM. For the same compound, the EC50 in series [2] is 2 nM.
In the same order, the values of `CCc1c(Cc2cc(F)cc(F)c2)nc(SCc2n[nH]c(-c3ccc(F)cc3)c2Cl)[nH]c1=O` [Compound I-63] are more than 200000 nM and 63 nM.
Consider `CCc1c(Cc2ccc3c(c2)OCO3)nc(SCc2n[nH]c(-c3ccc(F)cc3)c2Cl)[nH]c1=O` [Compound I-65], for which the CC50 at 3 days in series [1] was more than 200000 nM. In series [2], this compound showed an EC50 of 370 nM.
On to `CCc1c(CC2CCCCC2)nc(SCc2cc(-c3cccc(C)c3)[nH]n2)[nH]c1=O` [Compound I-23], for which the CC50 at 3 days in series [1] (setting [4]) was 91400 nM. This compound also yielded an EC50 in series [2] of 52 nM.
`Cc1c(CC2CCCCC2)nc(SCc2n[nH]c(-c3ccc(F)cc3)c2Cl)[nH]c1=O` [Compound I-68]: in series [1], the CC50 at 3 days is more than 200000 nM. The EC50 in series [2] is 111 nM.
In turn, `CC(C)c1c(CC2CCCCC2)nc(SCc2cc(-c3ccc(O)cc3)[nH]n2)[nH]c1=O` [Compound I-38] yielded a CC50 at 3 days in series [1] of 156000 nM. For the same compound, the EC50 in series [2] was 3 nM.
In the same order, the values of `CCc1c(Cc2c(Cl)cccc2Cl)nc(SCc2n[nH]c(-c3ccccc3)c2Cl)[nH]c1=O` [Compound I-70] are more than 200000 nM and 92 nM.
Compound `CCc1c(Cc2cc(F)cc(F)c2)nc(SCc2cc(-c3ccc(F)cc3)[nH]n2)[nH]c1=O` [Compound I-52] returned a CC50 at 3 days in series [1] of more than 200000 nM. Besides, the CC50 in series [3] (human, 3 days) is more than 200000 nM. The same compound came in with an EC50 in series [2] of 97 nM.
For `CCc1c(Cc2c(Cl)cccc2Cl)nc(SCc2n[nH]c(-c3ccc(F)c(F)c3)c2Cl)[nH]c1=O` [Compound I-55], the CC50 at 3 days in series [1] was more than 200000 nM. In series [3] (human, 3 days), this compound displayed a CC50 of more than 200000 nM. In addition, in series [2], a half-maximal effect (EC50) was put at 700 nM.
In series [1], `CCc1c(Cc2ccccc2)nc(SCc2cc(-c3ccc(F)c(F)c3)[nH]n2)[nH]c1=O` [Compound I-58] yielded a CC50 at 3 days of 81000 nM. Further, it took 400 nM to reach a half-maximal effect in series [2] (EC50).
On to `Cc1cn([C@H]2C[C@H](N=[N+]=[N-])[C@@H](CO)O2)c(=O)[nH]c1=O` [AZT, Zidovudine, reference compound], for which the CC50 at 3 days in series [1] is more than 749000 nM. Besides, in series [2], the response was half-maximal at 49 nM (EC50).
In turn, `CC(C)c1c(CC2CCCCC2)nc(SCc2cc(-c3ccc(Cl)cc3)[nH]n2)[nH]c1=O` [Compound I-36] returned a CC50 at 3 days in series [1] of 91200 nM. In addition, in series [2], a half-maximal response (EC50) required 9 nM.
In series [2], `CCc1c(CC2CCCCC2)nc(SCc2n[nH]c(-c3ccc(OC)c(Cl)c3)c2Cl)[nH]c1=O` [Compound I-11] came in with an EC50 of 130 nM.
In series [1], `CCc1c(Cc2cc(F)cc(F)c2)nc(SCc2cc(-c3ccc(F)c(F)c3)[nH]n2)[nH]c1=O` [Compound I-61] yielded a CC50 at 3 days of 46400 nM. In addition, the EC50 in series [2] was 124 nM.
In the same order, the values of `O=c1cc(CC2CCCCC2)nc(SCc2cc(-c3ccc(F)c(F)c3)[nH]n2)[nH]1` [Compound I-59] are 89100 nM and 23900 nM.
As for `CCc1c(CC2CCCCC2)nc(SCc2cc(-c3ccc(Cl)c(Cl)c3)[nH]n2)[nH]c1=O` [Compound I-12], the EC50 in series [2] is 310 nM.
`CCc1c(CC2CCCCC2)nc(SCc2n[nH]c(-c3ccc(F)c(F)c3)c2Cl)[nH]c1=O` [Compound I-19] gave an EC50 in series [2] of 151 nM.
Still for that read-out and setting: the value for `CCc1c(CC2CCCCC2)nc(SCc2cc(-c3ccc(O)cc3)[nH]n2)[nH]c1=O` [Compound I-17] was 4 nM.
`O=c1cc(CC2CCCCC2)nc(SCc2n[nH]c(-c3ccc(F)c(F)c3)c2Cl)[nH]1` [Compound I-54]: it took 89000 nM to reach half-maximal cytotoxicity in series [1] (CC50 at 3 days). In addition, in series [2], the EC50 is 3880 nM.
In the case of `CCc1c(CC2CCCCC2)nc(SCc2cc(-c3ccc(Cl)cc3)[nH]n2)[nH]c1=O` [Compound I-07], in series [2], the midpoint of the response, the EC50, lay at 18 nM.
Same read-out and setting: the value for `CCc1c(CC2CCCCC2)nc(SCc2cc(-c3ccccc3)[nH]n2)[nH]c1=O` [Compound I-02] was 7 nM; that for `CCc1c(CC2CCCCC2)nc(SCc2n[nH]c(-c3cccc(Br)c3)c2Cl)[nH]c1=O` [Compound I-04] was 101 nM.
Compound `CCc1c(Cc2cc(F)cc(F)c2)nc(SCc2n[nH]c(-c3ccccc3)c2Cl)[nH]c1=O` [Compound I-69] registered a CC50 at 3 days in series [1] of more than 200000 nM. Also, the midpoint of the response in series [2], the EC50, lay at 55 nM.
In the same order, the values of `CCc1c(Cc2c(Cl)cccc2Cl)nc(SCc2cc(-c3ccc(F)c(F)c3)[nH]n2)[nH]c1=O` [Compound I-60] are 64900 nM and 733 nM.
`CCc1c(Cc2ccc3c(c2)OCO3)nc(SCc2n[nH]c(-c3ccccc3)c2Cl)[nH]c1=O` [Compound I-72] returned a CC50 at 3 days in series [1] of more than 200000 nM. For the same compound, the EC50 in series [2] was determined as 81 nM.
In the same order, the values of `O=c1cc(CC2CCCCC2)nc(SCc2n[nH]c(-c3ccccc3)c2Cl)[nH]1` [Compound I-48] are 98900 nM and 927 nM.
In turn, `COc1ccc(-c2cc(CSc3nc(CC4CCCCC4)c(C)c(=O)[nH]3)n[nH]2)cc1` [Compound I-43] yielded an EC50 in series [2] of 194 nM.
Still for that read-out and setting: in the case of `CCc1c(CC2CCCCC2)nc(SCc2n[nH]c(-c3ccccc3)c2Cl)[nH]c1=O` [Compound I-01] it was 99 nM.
`CCc1c(CC2CCCCC2)nc(SCc2cc(-c3ccccn3)[nH]n2)[nH]c1=O` [Compound I-34] came in with an EC50 in series [2] of 23 nM.
`Cc1c(CC2CCCCC2)nc(SCc2n[nH]c(-c3ccc(F)c(F)c3)c2Cl)[nH]c1=O` [Compound I-56] showed a CC50 at 3 days in series [1] of 40300 nM. Also, in series [2], the EC50 came to 587 nM.
